Key:
HSV-1 = experiment: Viral titer from Vero cells pre-treated with oligonucleotide, HSV-1; type: cell-based, African Green monkey (Vero cells); conditions: for Viral titer, percent of control titer: cells infected with HSV-1
Experimental: (§1) Vero cells, a cell line derived from African Green monkey kidney, were pre-treated with varying concentrations of ISS or non-ISS oligonucleotides for varying times prior to the addition of HSV-1 or HSV-2. Oligonucleotides were used at 1 μg/ml or 10 μg/ml and the cells were incubated with the oligonucleotides for 30 seconds, 10 minutes or 24 hours. Viral titers were calculated as a percent of control titer generated by cells not treated with the oligonucleotides. The data are expressed as percent of control titer.

RSV A2 [1] = experiment: RSV lung titer in cotton rats after local (intranasal) administration; type: in vivo, cotton rat (Sigmoden hispidis); conditions: for RSV titer (log10/g lung) Mean / RSV titer (log10/g lung) in CR No. 1 / RSV titer (log10/g lung) in CR No. 2 / RSV titer (log10/g lung) in CR No. 3 / RSV titer (log10/g lung) in CR No. 4: non-ISS = SEQ ID NO:9
Experimental: (§2) Cotton rats, 50-100 g and 4-12 weeks old (Sigmoden hispidis) of either sex were used in these studies. All of the animals were descendants of two pair of cotton rats obtained in 1984 from the Small Animal Section of the Veterinary Research Branch, Division of Research Services, National Institutes of Health.
(§3) RSV strain A2 was purchased from the ATCC (ATCC VR26). Working stocks of this virus were prepared as described in detail by Wyde et al. (1995) Pediatr. Res. 38:543-550. ISS sequence tested for RSV experiments was 5′-[…]-3′ (SEQ ID NO:1) (phosphorothioate). Control, non-ISS sequences used were 5′-[…]-3′ (SEQ ID NO:9) (phosphorothioate) and 5′-[…]-3′ (SEQ ID NO:10) (phosphorothioate), as well as PBS.
(§4) RSV levels in virus pools and lung lavage fluids (L.F.) were determined using sterile 96-well, flat bottom tissue culture plates (Falcon 3072), serial 3-fold dilutions and 2% FCS-MEM as described in detail previously (Wyde et al., 1995). […] The amount of virus in virus pools was expressed as a median tissue culture infectious doses (TCID50/ml, log10). Titers of virus in L.F. were expressed as TCID50/g lung tissue (log10). The minimum detectable virus concentration in these assays was 1.3 log10 TCID50/ml (virus pools) or 1.6 log10 TCID50/g lung.
On day −3 (i.e., 3 days before infection with virus), 20 cotton rats (CRs) were selected and divided into five groups of four animals. The animals in Group 1 were lightly anesthetized and 50 μL of phosphate buffered saline (PBS) was administered intranasally (IN). The CRs in Group 2 were similarly administered 150 μg of ISS (5′-[…]-3′) (SEQ ID NO:1), while the animals in Group 3 were similarly administered 150 μg of control non-ISS sequence 5′-[…]-3′ (SEQ ID NO:9). Three days later, on Day 0, each of CRs in Group 4 were anesthetized and 150 μg of ISS was administered IN, and the animals in Group 5 were administered, in a like manner, 150 μg of control non-ISS sequence 5′-[…]-3′ (SEQ ID NO:9).
Thirty minutes later, all of the CRs were inoculated IN with 100 median tissue culture infectious doses (TCID50) of RSV A2. Four days later (Day 4), all of the animals were sacrificed and the lungs of each animal were removed, lavaged, and assessed for RSV levels.

canine papillomavirus = experiment: Canine oral papilloma model, time to lesion regression; type: in vivo, Beagle puppies
Experimental: A model of canine oral papilloma was used to test the efficacy of ISS on papilloma. Beagle puppies were inoculated in the bucal mucosa with canine papillomavirus and developing papilloma lesions were monitored daily. Four groups of seven dogs each were treated with differing amount of ISS oligonucleotide (5′-[…]-3′ (SEQ ID NO:1), phosphorothioate backbone). One group received 50 μg ISS twice a week, another group received 500 μg ISS twice a week, the third group received 500 μg ISS one time only at the first signs of papilloma lesion development (injected within the papilloma lesion) and the fourth group (control group) received PBS twice a week. All dogs were monitored daily for the development of lesions and the time to regression.

HSV-2 = experiment: Viral titer from Vero cells pre-treated with oligonucleotide, HSV-2; type: cell-based, African Green monkey (Vero cells); conditions: cells infected with HSV-2
Experimental: as §1

RSV A2 [2] = experiment: RSV lung titer in cotton rats after non-local (IP or SC) administration; type: in vivo, cotton rat (Sigmoden hispidis); conditions: for RSV titer (log10/g lung) Mean / RSV titer (log10/g lung) in cotton rat no. 1 / RSV titer (log10/g lung) in cotton rat no. 2 / RSV titer (log10/g lung) in cotton rat no. 3 / RSV titer (log10/g lung) in cotton rat no. 4 / RSV titer (log10/g lung) in CR no. 1 / RSV titer (log10/g lung) in CR no. 2 / RSV titer (log10/g lung) in CR no. 3 / RSV titer (log10/g lung) in CR no. 4: Non-ISS = SEQ ID NO:10
Experimental: as §2, §3, §4
Twenty cotton rats were divided into 5 groups of 4 animals. Administered to these animals, either intraperitoneally (IP) or subcutaneously (SC), was PBS, immunostimulatory sequence (ISS) 5′-[…]-3′ (SEQ ID NO:1) or non-ISS sequence 5′-[…]-3′ (SEQ ID NO:10), each sequence at 150 μg/injection. On Day 0 each of these animals was […] IN with 100 TCID50 of RSV A2. Four days later each cotton rat was sacrificed. The lungs of each animal were removed, lavaged and assessed for RSV.

[3] = cells pre-treated 1 μg/ml, 30 sec
[4] = cells pre-treated 1 μg/ml, 10 min
[5] = cells pre-treated 1 μg/ml, 24 hr
[6] = cells pre-treated 10 μg/ml, 30 sec
[7] = cells pre-treated 10 μg/ml, 10 min
[8] = cells pre-treated 10 μg/ml, 24 hr
[9] = 150 μg IN Day 0 (30 min before RSV), lungs Day 4
[10] = 150 μg IN Day −3, RSV Day 0, lungs Day 4
[11] = 150 μg IP Day −1, RSV Day 0, lungs Day 4
[12] = 150 μg IP Day −3, RSV Day 0, lungs Day 4
[13] = 150 μg SC Day −1, RSV Day 0, lungs Day 4
[14] = 150 μg SC Day −3, RSV Day 0, lungs Day 4

5′-TGACTGTGAACGTTCGAGATGA-3′ [SEQ ID NO: 1]
Effect on viral titers from infected cells (HSV-1; cells incubated with ISS prior to HSV infection in vitro (HSV-1 and HSV-2, Table 12)): no effect on the viral titers | Viral titer, percent of control titer (HSV-1; [3]): 98% of control titer | Viral titer, percent of control titer (HSV-1; [4]): 96% of control titer | Viral titer, percent of control titer (HSV-1; [5]): 89% of control titer | Viral titer, percent of control titer (HSV-1; [6]): 100% of control titer | Viral titer, percent of control titer (HSV-1; [7]): 102% of control titer | Viral titer, percent of control titer (HSV-1; [8]): 82% of control titer | RSV titer (log10/g lung) Mean (RSV A2 [1]; [9]): 3.9 log10/g lung | RSV titer (log10/g lung) in CR No. 1 (RSV A2 [1]; [9]): 4 log10/g lung | RSV titer (log10/g lung) in CR No. 2 (RSV A2 [1]; [9]): 4 log10/g lung | RSV titer (log10/g lung) in CR No. 3 (RSV A2 [1]; [9]): 4.5 log10/g lung | RSV titer (log10/g lung) in CR No. 4 (RSV A2 [1]; [9]): 3 log10/g lung | RSV titer (log10/g lung) Mean (RSV A2 [1]; [10]): 2.8 log10/g lung | RSV titer (log10/g lung) in CR No. 1 (RSV A2 [1]; [10]): 3 log10/g lung | RSV titer (log10/g lung) in CR No. 2 (RSV A2 [1]; [10]): 3 log10/g lung | RSV titer (log10/g lung) in CR No. 3 (RSV A2 [1]; [10]): 2.5 log10/g lung | RSV titer (log10/g lung) in CR No. 4 (RSV A2 [1]; [10]): 2.5 log10/g lung | Effect on RSV viral titer in infected tissue (RSV A2 [1]; IN administration 3 days before infection): effective at reducing viral titers | Effect on RSV viral titer in infected tissue (RSV A2 [1]; first IN administration on the day of infection): not effective | Average rate of lesion regression (canine papillomavirus; 500 μg one time at first signs of papilloma lesion): higher average rate of lesion regression than untreated dogs | Average time for rapid regression (canine papillomavirus; 500 μg one time at first signs of papilloma, injected within the lesion): 25.1 days | Regression time (canine papillomavirus; other treatment groups: 50 μg or 500 μg twice a week): did not show a marked difference in regression time | Viral titer, percent of control titer (HSV-2; [3]): 101% of control titer | Viral titer, percent of control titer (HSV-2; [4]): 98% of control titer | Viral titer, percent of control titer (HSV-2; [5]): 99% of control titer | Viral titer, percent of control titer (HSV-2; [6]): 101% of control titer | Viral titer, percent of control titer (HSV-2; [7]): 101% of control titer | Viral titer, percent of control titer (HSV-2; [8]): 99% of control titer | RSV titer (log10/g lung) Mean (RSV A2 [2]; [11]): 3.6 log10/g lung | RSV titer (log10/g lung) in cotton rat no. 1 (RSV A2 [2]; [11]): 3.8 log10/g lung | RSV titer (log10/g lung) in cotton rat no. 2 (RSV A2 [2]; [11]): 3.3 log10/g lung | RSV titer (log10/g lung) in cotton rat no. 3 (RSV A2 [2]; [11]): 3.3 log10/g lung | RSV titer (log10/g lung) in cotton rat no. 4 (RSV A2 [2]; [11]): 3.8 log10/g lung | RSV titer (log10/g lung) Mean (RSV A2 [2]; [12]): 3.7 log10/g lung | RSV titer (log10/g lung) in cotton rat no. 1 (RSV A2 [2]; [12]): 3.3 log10/g lung | RSV titer (log10/g lung) in cotton rat no. 2 (RSV A2 [2]; [12]): 3.8 log10/g lung | RSV titer (log10/g lung) in cotton rat no. 3 (RSV A2 [2]; [12]): 3.8 log10/g lung | RSV titer (log10/g lung) in cotton rat no. 4 (RSV A2 [2]; [12]): 3.8 log10/g lung | RSV titer (log10/g lung) Mean (RSV A2 [2]; [13]): 4.0 log10/g lung | RSV titer (log10/g lung) in CR no. 1 (RSV A2 [2]; [13]): 4 log10/g lung | RSV titer (log10/g lung) in CR no. 2 (RSV A2 [2]; [13]): 4.5 log10/g lung | RSV titer (log10/g lung) in CR no. 3 (RSV A2 [2]; [13]): 3.5 log10/g lung | RSV titer (log10/g lung) in CR no. 4 (RSV A2 [2]; [13]): 4 log10/g lung | RSV titer (log10/g lung) Mean (RSV A2 [2]; [14]): 4.1 log10/g lung | RSV titer (log10/g lung) in CR no. 1 (RSV A2 [2]; [14]): 4 log10/g lung | RSV titer (log10/g lung) in CR no. 2 (RSV A2 [2]; [14]): 4.5 log10/g lung | RSV titer (log10/g lung) in CR no. 3 (RSV A2 [2]; [14]): 4 log10/g lung | RSV titer (log10/g lung) in CR no. 4 (RSV A2 [2]; [14]): 4 log10/g lung | Reduction in RSV viral titers compared to PBS (RSV A2 [2]; IP and SC administration of 150 μg): failed to cause a statistically significant reduction in viral titers
